Several values for one entry are separate records, joined by “and”; a condition that tells them apart may be missing. Identical values can stand only once.
Assays:
various cell lines = conditions: BSO by itself; Dai et al. (1999); cited from earlier work
neuroblastoma cells = conditions: Nicole et al. (1998); cited from earlier work
[1] = system: MX-1 mammary carcinoma cells; test: 3H-Thymidine incorporation (proliferation) assay; assay type: cell-based, human; conditions: positive control, 10^−5 M doxorubicin; negative control = 100%
Experimental: Test compounds: Tested substances were dissolved in the appropriate medium as follows: carmustine (Sigma) was dissolved in ethanol, disulfiram (DSF) (Sigma) and curcumin (Fluka) were dissolved in dimethyl sulfoxide (DMSO), and DL-buthionine-sulfoximine (BSO) (Fluka) was dissolved in growth medium.
Compounds were added in a 1:10 serial dilution to the wells to obtain range of 10^−3 M to 10^−8 M final concentrations.
Controls: Positive control—10^−5M Doxorubicin. Negative control—Media containing the compound's solvent.
Cell lines: MX-1 mammary carcinoma cells were grown in RPMI-1640 medium, supplemented with 10% FBS, 2 mM L-glutamine, 1% penicillin/streptomycin and 1% non-essential amino acids.
MX-1 culturing and sub-culturing: MX-1 cells were grown in 75 cm^2 culture flasks. The culture medium was changed every other day and the day before the experiment. […]
Thymidine incorporation (proliferation) assay and cells harvesting: 24 hours after administering the compounds, to each well in the culture plates, ^3H-thymidine (NET-027 Thymidine [methyl-^3H] from NEN, 6.7 Ci/mmol) was added to final concentration of 0.4 μCi/well. […] Radioactivity was determined after adding 180 μl scintillation liquid (Microscint 20™, Packard).
Data calculation: The data represent the mean amount of thymidine counted per well (CPM). Average and standard deviation (SD) were calculated for each plate (12 wells). […]

Structure (SMILES) | decrease in [GSH] in the cell (various cell lines) [%] | decrease of GSH content (neuroblastoma cells) [%] | Cell proliferation rate [1]
CCCCS(=N)(=O)CCC(N)C(=O)O (racemic) [BSO, buthionine sulfoximine] | 70 | 98 | –
COc1cccc2c1C(=O)c1c(O)c3c(c(O)c1C2=O)C[C@@](O)(C(=O)CO)C[C@@H]3O[C@H]1C[C@H](N)[C@H](O)[C@H](C)O1 [doxorubicin, Doxorubicin] | – | – | 4-11% and 4%
